“Also recorded” adds a separate entry of the source.
Test system: spontaneously beating neonatal rat cardiomyocytes (NRCMs)
Experiment: Chronotropic effect on spontaneously beating neonatal rat cardiomyocytes (in vitro cardiac arrhythmia model)
Type: cell-based, neonatal Wistar rats
Conditions: 30 nM final concentration, 5 min incubation
Excerpt: The activity of the n-3 PUFA analogues according to the invention can, for example, be determined in appropriate in vitro and/or in vivo assays. For instance, the biological activity of the n-3 PUFA analogues according to the present invention may be determined using the established cell model of Kang and Leaf (Proc Natl Acad Sci USA, 1994. 91(21): p. 9886-90.) known to those skilled in the art.
In order to measure the biological activities of the novel compounds an established cell model was used (Kang, J. X. and A. Leaf, Effects of long-chain polyunsaturated fatty acids on the contraction of neonatal rat cardiac myocytes. Proc Natl Acad Sci USA, 1994. 91(21): p. 9886-90.). The spontaneously beating neonatal rat cardiomyocytes (NRCMs) are a model system to investigate anti-arrhythmic effects of test-compounds.
Isolation and cultivation of NRCMs were performed as described previously (Wallukat, G; Wollenberger, A. Biomed Biochim Acta. 1987;78:634-639; Wallukat G, Homuth V, Fischer T, Lindschau C, Horstkamp B, Jupner A, Baur E, Nissen E, Vetter K, Neichel D, Dudenhausen J W, Haller H, Luft F C. J Clin Invest. 1999; 103: 945-952). Briefly, neonatal Wistar rats (1-2 days old) were killed in conformity to the recommendations of the Community of Health Service of the City of Berlin and the cardiomyocytes were dissociated from the minced ventricles with a 0.2% solution of crude trypsin. The isolated cells were then cultured as monolayers on the bottom (12.5 cm^2) of Falcon flasks in 2.5 ml of Halle SM 20-I medium equilibrated with humidified air. The medium contained 10% heat-inactivated FCS and 2 μmol/l fluoro-deoxyuridine (Serva, Heidelberg, Germany), the latter to prevent proliferation of non-muscle cells. The NRCMs (2.4×10^6 cells/flask) were cultured at 37° C. in an incubator. After 5 to 7 days, the NRCMs formed spontaneously beating cell clusters. […] On the day of the experiment, the culture medium was replaced by 2.0 ml fresh serum-containing medium. Two hours later, the beating rates were monitored at 37° C. using an inverted microscope equipped with a heating stage. To determine the basal rate, 6 to 8 individual clusters were selected and the number of contractions was counted for 15 sec. After that, the compound to be tested was added to the culture and the beating rate of the same clusters was monitored 5 min later again. Based on the difference between the basal and compound-induced beating rate of the individual clusters, the chronotropic effects (Δ beats/min) were calculated and are given as mean±SE values. N refers to the number of clusters monitored which originated, in general, from at least three independent NRCM cultures.
All compounds tested were added to the NRCMs at a final concentration of 30 nM and the measurement was performed after 5 min of incubation; except EPA that was used at a final concentration of 3.3 μM and the effect was monitored after 30 min of incubation.

## CNC(=O)C(=O)NCCCC/C=C\CCCCCCCCCC(=O)NS(=O)(=O)c1ccccc1 [C50, N^1-(16-phenylsulfonamido-16-oxohexadec-5(Z)-en-1-yl)-N^2-methyloxalamide]
  chronotropic effect on spontaneous beating rate (in words): negative chronotropic effect

## CNC(=O)C(=O)NCCCC/C=C\CCCCCCCCCS(=O)(=O)[O-].[Na+] [C42, Sodium 15-(2-(methylamino)-2-oxoacetamido)pentadec-10(Z)-en-1-sulfonate]
  chronotropic effect on spontaneous beating rate (in words): negative chronotropic effect

## CNC(=O)C(=O)NCCCC/C=C\CCCCCCCCCSc1ccccc1O [C44, (Z)—N^1-(15-((2-hydroxyphenyl)thio)pentadec-5-en-1-yl)-N^2-methyloxalamide]
  chronotropic effect on spontaneous beating rate (in words): lowest activity; also recorded: negative chronotropic effect
n=12 clusters
  chronotropic effect (Δ beats/min), mean±SE: −7.5±4.5 beats/min

## CCC1OC1C/C=C\C/C=C\C/C=C\C/C=C\CCCC(=O)O (stereo not shown) [17,18-EEQ, 17,18-epoxyeicosatetraenoic acid, reference compound]
  chronotropic effect on spontaneous beating rate (in words): negative chronotropic effect

## CNC(=O)C(=O)NCCCC/C=C\CCCCCCCCCP(=O)([O-])[O-].[Na+].[Na+] [C41, disodium 15-(2-(methylamino)-2-oxoacetamido)pentadec-10(Z)-enylphosphonate]
  chronotropic effect on spontaneous beating rate (in words): negative chronotropic effect

## CNC(=O)C(=O)NCCCCc1ccccc1CCCCCCCCCP(=O)([O-])[O-].[Na+].[Na+] [C49]
  chronotropic effect on spontaneous beating rate (in words): negative chronotropic effects

## CNC(=O)C(=O)NCCCC/C=C\CCCCCCCCCC1=NOS(=O)N1 (stereo not shown) [C38, N^1-methyl-N^2-(15-(2-oxido-3H-1,2,3,5-oxathiadiazol-4-yl)pentadec-5(Z)-en-1-yl)oxalamide]
  chronotropic effect on spontaneous beating rate (in words): negative chronotropic effect

## CNC(=O)C(=O)NCCCc1ccccc1CCCCCCP(=O)([O-])[O-].[Na+].[Na+] [C48]
  chronotropic effect on spontaneous beating rate (in words): negative chronotropic effects

## N^1-(15-((2-acetamidobenzo[d]thiazol-7-yl)oxy)pentadec-5(Z)-en-1-yl)-N^2-methyloxalamide [C43]
  chronotropic effect on spontaneous beating rate (in words): negative chronotropic effect
